Earlier results on 2 substances are cited in US20050142194A1, “Composition comprising CS” (ALTERGON S.A., priority 2003, published 2005).

For data set [1] the following is noted: general statement of the prior art part.
In a further data set the test system is pepsin. The settings on record: prior art statement, middle of the twentieth century.

For the substance chondroitin sulfate, the solubility in water result in data set [1] was “poorly soluble in water”. Also, in the data set with pepsin, the “action on the proteolytic activity of pepsin” value was “clear inhibitory action”.

For sodium chondroitin sulfate, in data set [1], the solubility in water result is given as “poorly soluble in water”.
